Laboratory results: patent publication US20050025795A1, “Compounds, Compositions and methods for insect control” (The Procter & Gamble Company, priority 2003, published 2005)
Counter-ions that a name gives are not always drawn. Like-named read-outs stand apart in the source and are kept apart here. Marks after values point to notes of the source that are not given here.

Assays:
roaches = assay type: in vivo, cockroaches
Procedure: An ˜500 mL jar is coated at the top with a thin film of petroleum jelly and covered with a plastic petri dish as a lid. […] The filter paper is bent in half to form a ‘tent’, as shown, so the roaches are not forced to contact the filter paper. The lid is removed, and a compound or composition to be tested is added to the top of the paper, at the bend. The lid is replaced and the insects monitored for activity at 15, 30, 45 minutes, then 1, 2, 4 and 24 hours post exposure.
This is done by taking multiple testes and plotting them on a dose-response curve such as the GraphPad® Prism® computer program. This program interpolates to find the midpoint of any sigmoidal dose-response curve.
The data in Table 1 can graphed as a sigmoidal dose response, much the same as any other biological data. […] The mid-Point of the dose-response curve is given by the computer and used to compare potencies. […] It is also necessary to understand the range of the testing. While the lower limit is in the 1 to 3 microliter range, the upper limit is about 250 microliters. Adding more material than that to the filter paper will allow the substance to drip onto the glass, where contact with the insects might occur. […] Several compounds are tested in a 2 liter (L) jar rather than the 0.5 L jars which are the primary assay.

[1] = test system: insects of the blattella species; assay: Direct contact spray knockdown; assay type: in vivo
Text: A formula is created consisting exclusively of ethylene glycol diformate. This diformate is placed in aerosol cans and pressurized with carbon dioxide as propellant. This material, when sprayed on insects of the blattella species, results in knockdown in under 30 seconds. When administered in the vapor phase according to Example 1, in a 500 milliliter jar, 15 microliters of the formula in the vapor phase kills all the insects in one hour.
Raid (#271) Roach and Ant Killer and Treatment is purchased and repeatedly tested in the assay of Example 1, and in a direct contact test. It did knowndown both the peripleneta species (17.2+/−3.2 seconds) and the blattella species (kill time 16 seconds) when directly sprayed on the insects.

[2] = 5 µL, ~500 mL jar, 6 insects in this jar

Cc1coc2c1CC[C@@H](C)C2 [(+)-Menthofuran, (+) menthofuran]
LD50 (vapor phase) in a 2 L jar (roaches; 2 L jar): 15 microliters per 2 L headspace | Percent Dead Only at 4 hours (roaches; [2]): 33%* | Percent Dead at 24 hours (roaches; [2]): 33%* | Percent Distressed or Dead at 4 hours (roaches; [2]): 33%* | Percent Dead Only at 4 hours (roaches; 10 µL (repeat), ~500 mL jar): 40% | Percent Dead at 24 hours (roaches; 10 µL (repeat), ~500 mL jar): 40% | Percent Distressed or Dead at 4 hours (roaches; 10 µL (repeat), ~500 mL jar): 40% | Percent Dead Only at 4 hours (roaches; 10 µL, ~500 mL jar): 100% | Percent Dead at 24 hours (roaches; 10 µL, ~500 mL jar): 80% | Percent Distressed or Dead at 4 hours (roaches; 10 µL, ~500 mL jar): 100% | Percent Dead Only at 4 hours (roaches; 15 µL, ~500 mL jar): 100% | Percent Dead at 24 hours (roaches; 15 µL, ~500 mL jar): 100% | Percent Distressed or Dead at 4 hours (roaches; 15 µL, ~500 mL jar): 100% | Percent Dead Only at 4 hours (roaches; 20 µL, ~500 mL jar): 100% | Percent Dead at 24 hours (roaches; 20 µL, ~500 mL jar): 100% | Percent Distressed or Dead at 4 hours (roaches; 20 µL, ~500 mL jar): 100% | Percent Dead Only at 4 hours (roaches; 33 µL, ~500 mL jar): 100% | Percent Dead at 24 hours (roaches; 33 µL, ~500 mL jar): 100% | Percent Distressed or Dead at 4 hours (roaches; 33 µL, ~500 mL jar): 100% | LD50 (vapor phase) (roaches; ~500 mL jar): 7.2 microliters/500 milliliters headspace

O=COC1CCCC1 [compound 2-2, cyclopentyl formate]
24 hr LD50 (vapor phase) (roaches; ~500 mL jar): 17 microliters per 500 milliliters headspace

CC(C)(C)OC=O [compound 2-1, tert-butyl formate]
24 hr LD50 (vapor phase) (roaches; ~500 mL jar): 40 microliters per 500 milliliters headspace

O=COCCOC=O [ethylene glycol diformate]
Knockdown time when sprayed on insects [1]: under 30 seconds | Insects killed in the vapor phase (roaches; 15 microliters of the formula, 500 milliliter jar, one hour): all | LD50 (vapor phase) (roaches; in a 500 milliliter jar): approximately 7.5 microliters | Relative potency within the diformate ester series (in words) (roaches; in vivo): most potent compound of the series

C=CCc1ccc(O)c(OC)c1 [eugenol, reference compound]
LD50 (vapor phase) (roaches; ~500 mL jar): > 300 milligrams/500 milliliters

(R) (−) carvone
Fraction of the roaches that die in 24 hrs (roaches; individually tested at 29 milligrams/500 milliliters, 24 hrs): ⅕
